This is an account of results in patent US12311033B2, “Lipid nanoparticle formulations and compositions” (CAPSTAN THERAPEUTICS, INC., priority 2023, dated 2025).

Data set [1] is described as follows: Ionizable cationic lipid in plasma, liver and spleen 24 hours after tLNP, LC/MS/MS. The data set is classed as in vivo, cynomolgus macaques. Here is the method: Samples were taken from cynomolgus macaques that had been intravenously administered either BF1 or F5 tLNPs (two each) at a dosage of 3 mg mRNA/kg in the preceding example. The tLNPs were conjugated to anti-CD5 mentioned in Example 2 as the targeting moiety. 24 hours after administration the animals were sacrificed and plasma, liver, and spleen tissue collected from two animals in each group and assessed by mass spectrometry for presence of these ionizable cationic lipids in order to assess biodegradability and biodistribution of these ionizable cationic lipids.
Briefly, plasma was stabilized for mass spectrometry by addition of 10 μL of formic acid per mL of K2EDTA plasma. Spleen and liver tissue were homogenized in 19 parts of homogenization buffer (50:40:10 0.1% formic acid in 1:1 methanol: acetone/10 mM ammonium formate with 0.2% formic acid/dimethylformamide (DMF)) to 1 part tissue (v/w) using a Geno/Grinder® (SPEX® SamplePrep) set to two minutes at 1500 rpms.
Calibration curves and quality control samples were prepared by spiking control matrix (plasma or homogenate) with CICL1 or ALC-0315 in DMF. The extraction was performed on wet ice by adding 300 μL of crashing solvent (0.1% formic acid in 1:1 methanol: acetonitrile) to 25 μL of sample to which 50 μL of internal standard was added (1:1 isopropyl alcohol: water). The extracts were mixed for four minutes at 1500 rpms and then centrifuged at 3000×g for ten minutes. 200 μL of supernatant was transferred to a clean 96 well plate for LC/MS/MS analysis.
Chromatography was performed on a Waters XBridge BEH C8 column (130 Å, 2.5 μm, 2.1×30 mm) using the following gradient. Mobile phase A (10 mM ammonium format in water with 0.2% formic acid) was held at 20% for 0.3 minutes before being reduced to 5% over 1.2 minutes. This condition was held for one minute before being returned to 80% B (0.1% formic acid in 1:1 methanol: acetonitrile) in 0.1 minutes. The column was then held at 80% B for 1.4 minutes. LC flow rate was held at 0.5 mL/min and the autosampler held at 2-8° C. The mass spectrum was obtained with a triple quadrupole apparatus using atmospheric pressure ionization (Sciex).
Quantitation was performed using a 1/X2 quadratic regression using the peak area for transition 1013.6→968.4 (CICL1) or 766.6→748.4 (ALC-0315) over peak area of transition 1040.6→995.4 of the internal standard.

A short description of data set [2]: Time course of ionizable cationic lipid (LC-MS) and mRNA (digital PCR) in plasma, spleen, liver. The class given is in vivo. As to conditions: mice; for plasma levels of lipid at 7 days: CD8-targeted tLNP F9 (CICL1) or BF1 (ALC-0315). Here is the method:
To obtain more detailed data a similar experiment was conducted in mice where it was possible to obtain a time course of disappearance of the ionizable cationic lipid and the encapsulated mRNA as well. Mice were intravenously administered 2 mg/kg tLNP of composition BF1 (comprising ALC-0315) or F9 (comprising CICL1) targeted to mouse CD8 and encapsulating an anti-human CD19 CAR, and monitored through 7 days. At each timepoint, 3 mice were sacrificed, and liver, spleen, and plasma were processed for LC-MS-based detection of lipid concentration and digital PCR detection of the mRNA. In plasma, mRNA level was normalized to a known amount of mRNA spiked in a control. In spleen and liver mRNA level was normalized to mRNA for the housekeeping gene GAPDH.

Data set [3] concerns the target signal regulatory protein a (SIRPα) (Homo sapiens, UniProt P78324). As to conditions: reported in Rodriguez et al., 2013; cited from earlier work.
The mark [4] stands for this setting: 24 hours after BF1 tLNP, 3 mg mRNA/kg.

Bounds are passed on as bounds.

Sequence of signal regulatory protein a (SIRPα) (P78324 31-504): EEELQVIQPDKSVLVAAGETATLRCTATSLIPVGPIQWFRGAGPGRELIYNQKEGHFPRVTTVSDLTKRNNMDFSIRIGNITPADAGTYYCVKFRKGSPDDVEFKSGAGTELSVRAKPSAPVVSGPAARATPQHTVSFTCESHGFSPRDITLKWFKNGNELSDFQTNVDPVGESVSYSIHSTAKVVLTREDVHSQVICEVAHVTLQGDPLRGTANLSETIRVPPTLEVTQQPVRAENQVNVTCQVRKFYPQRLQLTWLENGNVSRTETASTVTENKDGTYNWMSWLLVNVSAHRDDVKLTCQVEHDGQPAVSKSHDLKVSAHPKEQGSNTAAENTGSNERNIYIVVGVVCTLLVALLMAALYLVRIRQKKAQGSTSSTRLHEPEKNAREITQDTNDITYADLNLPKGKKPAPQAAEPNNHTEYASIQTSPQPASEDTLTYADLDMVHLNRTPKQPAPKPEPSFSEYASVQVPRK

Regarding `CCCCCCCCC(CCCCCC)C(=O)OCCCCCCN(CCCCO)CCCCCCOC(=O)C(CCCCCC)CCCCCCCC` (centres unmarked) [ALC-0315, [(4-Hydroxybutyl)azanediyl]di(hexane-6,1-diyl)bis(2-hexyldecanoate), reference compound], in data set [1] (setting [4]), the “concentration in liver, fold greater (reference not given)” value was “approximately 14 fold” and the “concentration in spleen, fold greater (reference not given)” value is recorded as roughly 11 fold. In addition, in data set [1] (24 hours after BF1 versus F5 tLNP, 3 mg mRNA/kg), the “concentration in blood, fold greater than CICL1” value is “about 6 fold”. The “plasma levels of lipid at 7 days” value in data set [2] (2 mg/kg i.v.) is “still detected”. For the same compound, in data set [2] (2 mg/kg i.v., through 7 days), the “lipid levels in spleen and liver” value is “remained almost unchanged throughout the 7 days”.
On to `CCCCCCCCC(=O)OCC(COC(=O)CCCCCCCC)CC(=O)OCCN(CCOC(=O)CC(COC(=O)CCCCCCCC)COC(=O)CCCCCCCC)C(=O)OCCN(C)C` [CICL1], for which the “concentrations in blood, liver, and spleen relative to each other” value in data set [1] (24 hours after F5 tLNP, 3 mg mRNA/kg) is listed as no more than 2 fold. For the same compound, the “amount of lipid present in blood, liver, and spleen” value in data set [1] (24 hours after F5 tLNP, 3 mg mRNA/kg i.v.) is given as “only very small amounts”. For the same compound, in data set [1] (24 hours, 3 mg mRNA/kg), the “liver concentration, fold less than for ALC-0315” value is reported as “approximately 127 fold” and the “spleen concentration, fold less than for ALC-0315” value is on record as roughly 35 fold. Besides, the biodegradability result in data set [1] (clearance data, at least at the initial step) was “much more biodegradable than ALC-0315”. Moreover, in data set [2] (2 mg/kg F9 tLNP), the “time after administration by which lipid levels were falling in the liver” value was no more than 2 h and the “time after administration by which lipid levels were falling in the spleen” value is no more than 1 h. For the same compound, the “plasma levels of lipid at 7 days” value in data set [2] (2 mg/kg i.v.) was “returned to baseline”.
On to “NYTCEVTELSREGKTVIELK (SEQ ID NO: 3) [CD47 peptide]”, for which the “binding affinity to SIRPα, fold stronger than full-length CD47 protein” value in data set [3] was 10 fold.
